{"source": "patent US12295937B2", "about": "“Psychoactive medicines and their use for treating psychiatric and neurological conditions and disorders” (Transcend Therapeutics, Inc., priority 2021, dated 2025)", "key": {"[1]": {"test": "IMPACT-1 Part A open-label study in PTSD", "type": "in vivo, human", "design": "Anxiety Sub-Scale of MADRS, score reduction / Participants with absence of Reduced Sleep (MADRS): concentration or dose not given beside the values", "procedure": "For each participant in Parts A and B, the study consists of: • Screening Period (Day −28 to Day −4): Informed consent, eligibility assessment, and enrolment of eligible participants. • Baseline/Preparatory Session (Day −3 to Day −1): Baseline assessments, confirmation of eligibility, and a preparatory psychoeducation session leading to enrolment confirmation. • Treatment Period (Day 1 to Day 24): Four weekly dose sessions, with associated remote sessions. The dose sessions last at least 8 hours, or until all effects (physical and psychological) have resolved (whichever is longer). Each dose session is followed by a safety phone call 1 day after dosing and efficacy assessments 2 days after dosing. Each dosing period is video recorded for quality and training purposes. The videos may be reviewed to ensure the Mentor is adhering to the Mentor training. • Follow-Up Period (Day 29 to Day 64): Follow-Up visits for safety and efficacy occur at 1, 2, 3 and 6 weeks post-final study drug administration. In addition, there are Mentor-Led Reflection Sessions 1, 2 and 3 weeks post-final study drug administration. Participants are contacted via telephone on Day 57 (±2 days) for Follow-Up. • Discontinuations: Participants who discontinue prematurely are asked to return for an extra visit to duplicate the 6-week end-of-study (EOS) visit.\nEach dose was given as an initial dose, followed by a second dose 90 minutes later. During the dosing session, participants were accompanied by a trained Mentor who provided non-directive support. After the 4-week treatment period, participants attended follow-up visits at 1, 2, 3, and 6 weeks following the last dose. Safety was assessed via standard measures including adverse events. PTSD symptoms were assessed via Clinician-Administered PTSD Scale for DSM-5 (CAPS-5), depressive symptoms were assessed via Montgomery-Åsberg Depression Rating Scale (MADRS). Anti-anxiety efficacy was evaluated using the Anxiety Sub-Scale of MADRS, namely, questions (Items 3, 4, 5, 6) that address four anxiety items (inner tension, reduced sleep, reduced appetite, concentration difficulties) Changes from baseline were analyzed using a paired t-test p-values.\nMethods: The IMPACT-1 study is a multi-center, two-part clinical trial. Part A has completed and was an open-label evaluation involving 14 participants with PTSD. Eligible participants are adults with severe PTSD (CAPS-5≥35) who had failed at least 1 prior treatment (pharmacotherapy and/or psychotherapy) for PTSD. […] Throughout each dosing session, participants were provided non-directive psychological support by a trained mental health practitioner. Following the 4-week treatment period, participants were followed for an additional 6 weeks to evaluate the durability of the therapeutic effect. PTSD symptom improvement was evaluated on the CAPS-5. Functioning was assessed via the 3 domains (school/work, family life, social life) of the Sheehan Disability Scale (SDS). Global improvement was measured by the CGI-I. Safety was assessed by monitoring adverse events, vital signs, and C-SSRS.\nFollowing the 4-week treatment period, participants were followed for an additional 6 weeks to evaluate the durability of the therapeutic effect. Sleep-related improvements were evaluated on the CAPS-5 (including distressing dreams [item B2; scores range 0 to 4] and sleep disturbances [item E6; scores range 0 to 4]), the Pittsburgh Sleep Quality Index (PSQI; total scores range 0 to 21) and subscales, and the reduced sleep item of the Montgomery-Åsberg Depression Rating Scale (MADRS; scores range 0 to 6)."}, "NET": {"biological_target": "NET (Rattus norvegicus, UniProt Q63380)", "sequence (Q63380 1-617)": "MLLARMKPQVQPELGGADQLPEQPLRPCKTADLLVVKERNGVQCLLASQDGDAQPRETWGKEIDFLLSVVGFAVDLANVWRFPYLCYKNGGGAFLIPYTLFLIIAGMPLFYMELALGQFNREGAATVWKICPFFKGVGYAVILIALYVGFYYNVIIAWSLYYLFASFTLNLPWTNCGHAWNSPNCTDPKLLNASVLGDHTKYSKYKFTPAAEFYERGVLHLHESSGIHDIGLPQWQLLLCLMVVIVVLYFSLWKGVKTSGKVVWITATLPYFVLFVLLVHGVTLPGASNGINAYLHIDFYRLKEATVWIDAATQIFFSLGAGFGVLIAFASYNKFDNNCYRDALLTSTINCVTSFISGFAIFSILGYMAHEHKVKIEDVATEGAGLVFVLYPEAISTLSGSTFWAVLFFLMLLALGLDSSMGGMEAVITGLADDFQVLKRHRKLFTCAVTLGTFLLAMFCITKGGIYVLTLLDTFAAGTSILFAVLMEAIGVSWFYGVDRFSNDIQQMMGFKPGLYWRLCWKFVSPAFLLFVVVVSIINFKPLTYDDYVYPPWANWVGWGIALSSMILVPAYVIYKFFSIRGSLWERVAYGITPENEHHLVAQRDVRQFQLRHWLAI", "test": "[3H]NE release from rat brain synaptosomes", "type": "biochemical", "design": "from tissue; synaptosomes for uptake and release", "conditions": "rat brain synaptosomes; read-out: Neurotransmitter release: EC50", "procedure": "Test compounds and synaptosomes were prepared as described for uptake inhibition assays. Synaptosomes treated with [^3H]5-HT, [^3H]DA or [^3H]NE were loaded onto filter chambers containing GF/C filters and placed in a superfusion system. Oxygenated Krebs buffer was perfused through the chambers at a rate of 1.5 mL/minute at 35° C. using either an 8-channel or a 12-channel peristaltic pump. Trapped air bubbles were removed from the filters prior to collecting fractions to ensure an even flow over the synaptosomal bed. After a superfusion period of 45 minutes, 2 basal fractions were collected followed by 6 fractions following the addition of the test drug. […] Scintillation cocktail was added, and the filters counted to determine residual radioactivity. Drug-evoked release of neurotransmitter was calculated by subtracting the average of the two basal fractions (collected prior to the drug addition), from the four fractions collected in the presence of drug. The drug-evoked release was then expressed as a percentage of the basal release. Potassium-evoked release was calculated by subtracting the average of two fractions collected prior to the addition of high KCl buffer from that in the two fractions following addition of high KCl buffer. Potassium-stimulated release was calculated as a percentage of basal release. […]"}}, "data": [{"smiles": "CNC(C)C(=O)c1ccc2c(c1)OCO2", "note": "(stereo not drawn) [Methylone, 3,4-methylenedioxy-N-methylcathinone]", "values": [{"measurement": "CAPS-5 score decrease", "setting": "[1]; 6 weeks after the last dose", "value": 36.2, "unit": "points"}, {"measurement": "MADRS score decrease", "setting": "[1]; 6 weeks after the last dose", "value": 21.4, "unit": "points"}, {"measurement": "Anxiety Sub-Scale of MADRS, score reduction", "setting": "[1]; Day 3", "value": 20, "unit": "%"}, {"measurement": "CAPS-5 score decrease", "setting": "[1]; Day 3", "value": 8.4, "unit": "points"}, {"measurement": "MADRS score decrease", "setting": "[1]; Day 3", "value": 8.2, "unit": "points"}, {"measurement": "Anxiety Sub-Scale of MADRS, score reduction", "setting": "[1]; Day 10", "value": 43, "unit": "%"}, {"measurement": "CAPS-5 score decrease", "setting": "[1]; Day 10", "value": 23.3, "unit": "points"}, {"measurement": "MADRS score decrease", "setting": "[1]; Day 10", "value": 16.2, "unit": "points"}, {"measurement": "Participants achieving remission (CAPS-5)", "setting": "[1]; Day 10", "value": "~40", "unit": "%"}, {"measurement": "Participants much or very much improved (CGI-I)", "setting": "[1]; Day 10, two days after the 2nd dose", "value": "~70", "unit": "%"}, {"measurement": "Anxiety Sub-Scale of MADRS, score reduction", "setting": "[1]; Day 17", "value": 50, "unit": "%"}, {"measurement": "Anxiety Sub-Scale of MADRS, score reduction", "setting": "[1]; Day 24", "value": 57, "unit": "%"}, {"measurement": "Anxiety Sub-Scale of MADRS, score reduction", "setting": "[1]; Day 29", "value": 56, "unit": "%"}, {"measurement": "Anxiety Sub-Scale of MADRS, score reduction", "setting": "[1]; Day 36", "value": 66, "unit": "%"}, {"measurement": "Anxiety Sub-Scale of MADRS, score reduction", "setting": "[1]; Day 43", "value": 64, "unit": "%"}, {"measurement": "Anxiety Sub-Scale of MADRS, score reduction", "setting": "[1]; Day 64", "value": 66, "unit": "%"}, {"measurement": "SDS score, Family Life", "setting": "[1]; Day 64", "value": "3.1 (3.45)"}, {"measurement": "SDS score, Mean Overall", "setting": "[1]; Day 64", "value": "3.1 (3.12)"}, {"measurement": "SDS score, Social Life", "setting": "[1]; Day 64", "value": "3.2 (3.39)"}, {"measurement": "SDS score, Work/School", "setting": "[1]; Day 64", "value": "3.3 (3.78)"}, {"measurement": "TEAE: Bruxism", "setting": "[1]; N = 14", "value": 14.3, "unit": "%"}, {"measurement": "TEAE: Decreased appetite", "setting": "[1]; N = 14", "value": 28.6, "unit": "%"}, {"measurement": "TEAE: Dizziness", "setting": "[1]; N = 14", "value": 14.3, "unit": "%"}, {"measurement": "TEAE: Fatigue", "setting": "[1]; N = 14", "value": 21.4, "unit": "%"}, {"measurement": "TEAE: Headache", "setting": "[1]; N = 14", "value": 42.9, "unit": "%"}, {"measurement": "TEAE: Hyperhidrosis", "setting": "[1]; N = 14", "value": 14.3, "unit": "%"}, {"measurement": "TEAE: Influenza-like illness", "setting": "[1]; N = 14", "value": 14.3, "unit": "%"}, {"measurement": "TEAE: Insomnia", "setting": "[1]; N = 14", "value": 14.3, "unit": "%"}, {"measurement": "TEAE: Nasopharyngitis", "setting": "[1]; N = 14", "value": 14.3, "unit": "%"}, {"measurement": "TEAE: Non-cardiac chest pain", "setting": "[1]; N = 14", "value": 21.4, "unit": "%"}, {"measurement": "Drug-related serious adverse events", "setting": "[1]; Part A", "value": "No drug-related SAEs occurred"}, {"measurement": "TEAE: Any AE", "setting": "[1]; Safety Population N = 14", "value": 78.6, "unit": "%"}, {"measurement": "CAPS-5 mean change from baseline", "setting": "[1]; after the first dose", "value": "−8.4", "unit": "points"}, {"measurement": "SDS mean change from baseline", "setting": "[1]; after the first dose", "value": "−1.53"}, {"measurement": "Participants with absence of Distressing Dreams", "setting": "[1]; after treatment", "value": 77, "unit": "%"}, {"measurement": "Participants with absence of Reduced Sleep (MADRS)", "setting": "[1]; after treatment", "value": 62, "unit": "%"}, {"measurement": "Participants with absence of Sleep Disturbances", "setting": "[1]; after treatment", "value": 62, "unit": "%"}, {"measurement": "CAPS-5 Distressing Dreams (item B2) mean score", "setting": "[1]; after treatment, baseline 2.2", "value": 0.38}, {"measurement": "CAPS-5 Sleep Disturbances (item E6) mean score", "setting": "[1]; after treatment, baseline 3.3", "value": 0.92}, {"measurement": "MADRS Reduced Sleep mean score", "setting": "[1]; after treatment, baseline 4.3", "value": 1.08}, {"measurement": "PSQI total mean score", "setting": "[1]; end of study", "value": 9.4}, {"measurement": "Participants having mild or no impairment (SDS)", "setting": "[1]; end of study", "value": "> 50", "unit": "%"}, {"measurement": "PSQI total score improvement", "setting": "[1]; end of study (6 weeks after the last dose), baseline 13.5", "value": "−4.0", "unit": "points"}, {"measurement": "CAPS-5 mean change from baseline", "setting": "[1]; end of study visit (6 weeks after the last dose)", "value": "−36.2", "unit": "points"}, {"measurement": "Change in number of days lost", "setting": "[1]; end of the 4-week treatment period, baseline 2.6", "value": -2.0, "unit": "days"}, {"measurement": "Change in number of days underproductive", "setting": "[1]; end of the 4-week treatment period, baseline 4.7", "value": -3.3, "unit": "days"}, {"measurement": "Participants achieving remission (CAPS-5)", "setting": "[1]; end of the study", "value": 61.5, "unit": "%"}, {"measurement": "Participants much or very much improved (CGI-I)", "setting": "[1]; end of the study", "value": "all participants"}, {"measurement": "Patient-reported chronic pain after methylone", "setting": "[1]; one subject, knees, before 7-8 and 8-9 out of 10", "value": "2-3 out of 10"}, {"measurement": "SDS mean change from baseline", "setting": "[1]; through the 6-week follow-up period", "value": "−4.26"}, {"measurement": "EC50", "setting": "NET", "value": 330, "unit": "nM"}]}]}
